Source: patent publication US20100286164A1, “SUBSTITUTED ARYL ALKYLAMINO-OXY-ANALOGS AND USES THEREOF” (The Brigham and Women's Hospital, Inc, priority 2007, published 2010)

Assays:
Assay type in all cases: biochemical
[1] = molecular target: T1, γ-secretase (Aβ1-40 production) (Homo sapiens, UniProt P49768); test: γ-Secretase assay, Aβ1-40 ELISA
T1 construct: made in house; host or cells: S-1 CHO cell line (Chinese hamster ovary)
Experimental: (§1) Purification of γ-Secretase and in Vitro γ-Secretase Assays—The following procedures can be used to isolate γ-secretase and measure its enzymatic activity. The multistep procedure for the high grade purification of human γ-secretase from the S-1 cells is performed as described previously (Fraering, P. C., et al. (2004) Biochemistry 43, 9774-9789). In vitro γ-secretase assays using the recombinant APP-based substrate C100FLAG and the recombinant Notch-based substrate N100FLAG are performed as reported previously (Esler, W. P., Kimberly, W. T., Ostaszewski, B. L., Ye, W., Diehl, T. S., Selkoe, D. J., and Wolfe, M. S. (2002) Proc. Natl. Acad. Sci. U.S.A. 99, 2720-2725, Kimberly, W. T., et al. (2003) Biochemistry 42, 137-144). Basically, the proteolytic reaction mixtures contain C100FLAG and N100FLAG substrate at a concentration of 1 μm, purified γ-secretase solubilized in 0.2% CHAPSO/HEPES, pH 7.5, at 10-fold dilution from stock (stock=the M2 anti-FLAG-eluted fraction in the purification protocol from S-1 cells (Fraering, P. C., et al. (2004) Biochemistry 43, 9774-9789)), 0.025% phosphatidylethanolamine (PE), and 0.10% phosphatidylcholine (PC). All the reactions are stopped by adding 0.5% SDS, and the samples are assayed for Aβ40 and Aβ42 by ELISA as described (Xia, W., Zhang, J., Ostaszewski, B. L., Kimberly, W. T., Seubert, P., Koo, E. H., Shen, J., and Selkoe, D. J. (1998) Biochemistry 37, 16465-16471). The capture antibodies are 2G3 (to Aβ residues 33-40) for the Aβ40 species and 21F12 (to Aβ residues 33-42) for the Aβ42 species.
(§2) Naphthyl Amine Alcohol Analogs and Assay Data—Compounds listed in Table 2 may be assayed as described herein (e.g., in Examples 3 and 4) and the specificity may be evaluated by comparing the relative inhibitions of C-100 Flag and N-100 Flag cleavage. The potency of the inhibitor may be evaluated with an Aβ1-40 ELISA assay (e.g., using an Aβ40 ELISA kit available from Invitrogen, Carlsbad, Calif.). […] The following table indicates the properties of certain compounds of the invention that were assayed as described herein. (INH=Inhibits)

[2] = molecular target: T2, γ-secretase (C100FLAG APP-based substrate) (Homo sapiens, UniProt P49768); test: In vitro γ-secretase assay, C-100 Flag (APP-based substrate) cleavage; details: effect on C-100 Flag cleavage; compounds tested in vitro at 100 μM
T2 construct: made in house; host or cells: S-1 CHO cell line (Chinese hamster ovary)
Experimental: as §1
(§3) Western Blotting and Antibodies—The following assay can be used to determine the extent to which the compounds of interest modulate the cleavage of APP and the Notch receptor. For Western analysis of PS1-NTF, PS1-CTF, Aph1α2-HA, FLAG-Pen-2, and NCT-GST, the samples are run on 4-20% Tris-glycine polyacrylamide gels, transferred to polyvinylidene difluoride, and can be probed with Ab14 (for PS1-NTF, 1:2000; a gift of S. Gandy), 13A11 (for PS1-CTF, 5 μg/ml; a gift of Elan Pharmaceuticals), 3F10 (for Aph1α2-HA, 50 ng/ml; Roche Applied Science), anti-FLAG M2 (for FLAG-Pen-2, 1:1000; Sigma), or αGST antibodies (for NCT-GST, 1:3000; Sigma). Samples from the γ-secretase activity assays (above) are run on 4-20% Tris-glycine gels and can be transferred to polyvinylidene difluoride membranes to detect AICD-FLAG with anti-FLAG M2 antibodies (1:1000, Sigma) and NICD-FLAG with Notch Ab1744 antibody (1:1000, Cell Signaling Technology), which is selective for the N terminus of NICD; the same samples are transferred to nitrocellulose membranes to detect Aβ with the anti-Aβ 6E10 antibody. Levels of AICD-FLAG and NICD-FLAG are estimated by densitometry using AlphaEase/Spot Denso (Alpha Innotech Corp.).
as §2

[3] = molecular target: T3, γ-secretase (N100FLAG Notch-based substrate) (Homo sapiens, UniProt P49768); test: In vitro γ-secretase assay, N-100 Flag (Notch-based substrate) cleavage; details: effect on N-100 Flag cleavage; compounds tested in vitro at 100 μM
T3 construct: made in house; host or cells: S-1 CHO cell line (Chinese hamster ovary)
Experimental: as §1, §3, §2

Compound	inhibition at 100 µM [1] [%]	further results
OC(CCN(Cc1ccccc1)C1CC1)c1ccc2ccccc2c1 (stereo not shown) [Example 37]	36	
C[C@@H](CN1CCN(c2ccc(F)cc2)CC1)[C@H](O)c1ccc2ccccc2c1 [Example 89]		inhibition at 50 µM [1]: 9%
CC(C)N(CCC(O)c1ccc2ccccc2c1)Cc1cccc(C#N)c1 (stereo not shown) [Example 36]	7	
COc1ccc(NCCC(O)c2ccc3ccccc3c2)cc1 (stereo not shown) [Example 25]	0	
OC(CCN1CCN(c2ccccc2)CC1)c1ccc2ccccc2c1 (stereo not shown) [Example 3]	0	γ-Secretase Assay N-100 Flag [3]: Enh
CN(CCc1ccccc1)CCC(O)c1ccc2ccccc2c1 (stereo not shown) [Example 15]	27	
OC(CCNc1ccc(C2CCCCC2)cc1)c1ccc2ccccc2c1 (stereo not shown) [Example 22]	0	
CC(CN(Cc1ccccc1)C(C)C)C(O)c1ccc2ccccc2c1 (stereo not shown) [Example 87]		γ-Secretase Assay ELISA % Inhibition [100 μM] Aβ1-40 [1]: 22%
OC(CCNc1ccc(Cl)c(Cl)c1)c1ccc2ccccc2c1 (stereo not shown) [Example 23]	0	
C[C@H](CN1CCN(c2ccc(F)cc2)CC1)[C@H](O)c1ccc2ccccc2c1 [Example 90]		inhibition at 50 µM [1]: 0%
CN(CCC(O)c1ccc2ccccc2c1)Cc1ccccc1 (stereo not shown) [Example 8]		γ-Secretase Assay ELISA % Inhibition [100 μM] Aβ1-40 [1]: 15%
CC(C)N(CCC(O)c1ccccc1)Cc1ccccc1 (stereo not shown) [Example 4]	10	
CC(C)CN(CCC(O)c1ccc2ccccc2c1)CC(C)C (stereo not shown) [Example 9]	0	
OC(CCN(C1CCCCC1)C1CCCCC1)c1ccc2ccccc2c1 (stereo not shown) [Example 7]	7	
OC(CCNc1cc(F)ccc1F)c1ccc2ccccc2c1 (stereo not shown) [Example 28]	0	
CC(C)N(CCC(O)c1ccc(F)cc1)Cc1ccccc1 (stereo not shown) [Example 38]	17	

Compound	inhibition at 100 µM [1] [%]	further results
CC(C)N(CCC(O)c1ccc2ccccc2c1)c1ccc(Cl)cc1 (stereo not shown) [Example 27]	0	
OC(CCNc1ccc(C(F)(F)F)cc1)c1ccc2ccccc2c1 (stereo not shown) [Example 24]	0	
COc1cc(CN(CCC(O)c2ccc3ccccc3c2)C(C)C)cc(OC)c1 (stereo not shown) [Example 35]	17	
CN(CCC(O)c1ccc2ccccc2c1)c1ccc(Oc2ccccc2)cc1 (stereo not shown) [Example 26]	6	
COc1ccc(CN(CCC(O)c2ccc3ccccc3c2)C(C)C)cc1 (stereo not shown) [Example 29]	55	γ-Secretase Assay C-100 Flag [2]: Inh
OC(CCN1CCCCCCC1)c1ccc2ccccc2c1 (stereo not shown) [Example 6]	20	
OC(CCN(Cc1ccccc1)Cc1ccccc1)c1ccc2ccccc2c1 (stereo not shown) [Example 5]	32	
COc1ccc(N2CCN(CCC(O)c3ccc4ccccc4c3)CC2)cc1 (stereo not shown) [Example 2]	0	γ-Secretase Assay C-100 Flag [2]: No change (NC)
CC(C)N(CCC(O)c1ccc2ccccc2c1)Cc1ccc(C#N)cc1 (stereo not shown) [Example 34]	19	
OC(CCNc1ccccc1)c1ccc2ccccc2c1 (stereo not shown) [Example 10]	0	γ-Secretase Assay C-100 Flag [2]: Enh
OC(CCNc1ccc2c(c1)OCCO2)c1ccc2ccccc2c1 (stereo not shown) [Example 21]	0	
CC(CN(Cc1ccccc1)C(C)C)C(O)c1ccc2ccccc2c1 (stereo not shown) [Example 88]		γ-Secretase Assay ELISA % Inhibition [100 μM] Aβ1-40 [1]: 66%; γ-Secretase Assay C-100 Flag [2]: Inh
OC(CCN1CCC2(CC1)OCCO2)c1ccc2ccccc2c1 (stereo not shown) [Example 16]	2	
CC(C)(C)N(CCC(O)c1ccc2ccccc2c1)Cc1ccccc1 (stereo not shown) [Example 11]	0	
CCN(CCC(O)c1ccc2ccccc2c1)Cc1ccccc1 (stereo not shown) [Example 12]	0	γ-Secretase Assay C-100 Flag [2]: Enh

Second part, led by results:

inhibition at 100 µM [1] [%]	Compound	further results
0	COc1ccc(C(O)CCN(Cc2ccccc2)C(C)C)cc1F (stereo not shown) [Example 60]	
0	COc1ccc(NCCC(O)c2ccc(Cl)cc2)cc1 (stereo not shown) [Example 80]	γ-Secretase Assay C-100 Flag [2]: Enh
30	CC(C)N(CCC(O)c1cc(F)cc(Cl)c1)Cc1ccccc1 (stereo not shown) [Example 55]	γ-Secretase Assay N-100 Flag [3]: Inh
0	Cc1cc(C)c(C(O)CCN(Cc2ccccc2)C(C)C)c(C)c1 (stereo not shown) [Example 49]	
0	COc1ccc(C(O)CCN(Cc2ccccc2)C(C)C)cc1OC (stereo not shown) [Example 59]	
2	CC(C)N(CCC(O)c1ccc2ccccc2c1)Cc1ccc(C(=O)O)cc1 (stereo not shown) [Example 66]	
0	Cc1ccc(NCCC(O)c2ccc3ccccc3c2)cc1F (stereo not shown) [Example 78]	γ-Secretase Assay C-100 Flag [2]: Enh
0	COc1cccc2cc(C(O)CCN(Cc3ccccc3)C(C)C)oc12 (stereo not shown) [Example 70]	
48	OC(CCNc1ccc(Oc2ccccc2)cc1)c1ccc2ccccc2c1 (stereo not shown) [Example 77]	γ-Secretase Assay C-100 Flag [2]: Inh
0	CC(C)N(CCC(O)c1ccc(OC2CCCCO2)cc1)Cc1ccccc1 (stereo not shown) [Example 50]	
1	CC(C)N(CCC(O)c1ccc(OC(F)(F)F)cc1)Cc1ccccc1 (stereo not shown) [Example 58]	
2	CC(C)N(CCCC(O)c1ccc2ccccc2c1)Cc1ccccc1 (stereo not shown) [Example 46]	
17	CC(C)N(CC[C@H](O)c1ccc2ccccc2c1)Cc1ccccc1 [Example 76]	
12	COC(CCN(Cc1ccccc1)C(C)C)c1ccc2cc(C(O)CCN(Cc3ccccc3)C(C)C)ccc2c1 (stereo not shown) [Example 86]	
24	CC(C)N(CCC(O)c1ccc(Oc2ccccc2)cc1)Cc1ccccc1 (stereo not shown) [Example 52]	
0	CC(C)N(CCC(O)c1ccc2ccccc2c1)Cc1ccc(F)c(Cl)c1 (stereo not shown) [Example 43]	
51	COC(CCN(Cc1ccccc1)C(C)C)c1ccc2ccccc2c1 (stereo not shown) [Example 84]	γ-Secretase Assay C-100 Flag [2]: Inh
6	CC(C)N(CCC(O)c1ccc(C#N)cc1)Cc1ccccc1 (stereo not shown) [Example 64]	
14	OC(CCN1CCN(c2ccc(F)cc2)CC1)c1ccc(C(F)(F)F)cc1 (stereo not shown) [Example 39]	
10	COc1ccc2cc(C(O)CCN(Cc3ccccc3)C(C)C)ccc2c1 (stereo not shown) [Example 51]	
27	CC(C)N(CCC(O)c1ccc(C(=O)O)cc1)Cc1ccccc1 (stereo not shown) [Example 67]	
0	CCOc1ccc(NCCC(O)c2ccc(F)cc2)cc1 (stereo not shown) [Example 79]	γ-Secretase Assay C-100 Flag [2]: Enh
0	CC(C)N(CCC(O)c1ccc2c(c1)OCO2)Cc1ccccc1 (stereo not shown) [Example 62]	
46	CC(C)(C)c1ccc(C(O)CCN2CCN(c3ccc(F)cc3)CC2)cc1 (stereo not shown) [Example 40]	
0	Cc1ccc(C(O)CCN(Cc2ccccc2)C(C)C)cc1C (stereo not shown) [Example 63]	
0	CC(C)N(CCC(O)c1ccccc1CN1CCCCC1)Cc1ccccc1 (stereo not shown) [Example 61]	
31	CC(C)N(CCC(O)c1cccc(OCc2ccccc2)c1)Cc1ccccc1 (stereo not shown) [Example 53]	
0	CC(C)N(CCCC(O)c1cccc2ccccc12)Cc1ccccc1 (stereo not shown) [Example 45]	
50	CC(C)N(CCC(Oc1ccc(C(F)(F)F)cc1)c1ccc2ccccc2c1)Cc1ccccc1 (stereo not shown) [Example 85]	
0	OC(CCN1CCN(Cc2ccccc2)CC1)c1ccc2ccccc2c1 (stereo not shown) [Example 47]	
